Test [1] addresses T1, wild-type human cardiac sodium channel, hNav1.5 (Homo sapiens, UniProt Q14524). As to the kind of experiment: Late INa screening assay (QPatch whole cell patch clamp, Tefluthrin-induced late current). In kind it is cell-based. Particulars: 1 uM; HEK293 hNav1.5; percent block of late INa. In short, it runs like this:
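HEK293 cells stably expressing hNav1.5 without beta subunits were whole-cell patch clamped at 23-25 °C, stepping from −120 to −20 mV for 250 ms at 0.1 Hz. Late current (240–265 ms) was induced with 10 μM Tefluthrin, and compounds were added typically at 0.3 or 1 μM. Percent block was taken against 0 Na baseline with rundown correction.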
(In general: In patch-clamp work, channel activity is measured electrically.)

Test [2] concerns the target T1, wild-type human cardiac sodium channel, hNav1.5. The experiment in a line: Peak INa screening assay (tonic block and use-dependent block). The class given is cell-based. An outline of the steps:
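HEK293 cells stably expressing hNav1.5 (no beta subunits), automated whole-cell patch clamp at 23-25° C, 40 mM Na+ bath (choline substitution), pH 7.35. Compound at 1 or 3 μM, added twice then 200 s equilibration; tonic block by steps to −20 mV from −100 mV at 0.1 Hz, use-dependent block at pulse 50 of a 3 Hz train, rundown-corrected versus compound-free.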

The mark [3] stands for this setting: tonic block of Peak INa, 0.1 Hz, holding -100 mV, read-out: Peak TB 3 uM.
Where [4] appears, read: use-dependent block of Peak INa, 3 Hz, pulse 50, read-out: Peak UDB 3 Hz 3 uM.

Each structure is given as a SMILES string. Read-outs that look alike come from different tables or passages of the source.

T1 sequence (Q14524 whole entry): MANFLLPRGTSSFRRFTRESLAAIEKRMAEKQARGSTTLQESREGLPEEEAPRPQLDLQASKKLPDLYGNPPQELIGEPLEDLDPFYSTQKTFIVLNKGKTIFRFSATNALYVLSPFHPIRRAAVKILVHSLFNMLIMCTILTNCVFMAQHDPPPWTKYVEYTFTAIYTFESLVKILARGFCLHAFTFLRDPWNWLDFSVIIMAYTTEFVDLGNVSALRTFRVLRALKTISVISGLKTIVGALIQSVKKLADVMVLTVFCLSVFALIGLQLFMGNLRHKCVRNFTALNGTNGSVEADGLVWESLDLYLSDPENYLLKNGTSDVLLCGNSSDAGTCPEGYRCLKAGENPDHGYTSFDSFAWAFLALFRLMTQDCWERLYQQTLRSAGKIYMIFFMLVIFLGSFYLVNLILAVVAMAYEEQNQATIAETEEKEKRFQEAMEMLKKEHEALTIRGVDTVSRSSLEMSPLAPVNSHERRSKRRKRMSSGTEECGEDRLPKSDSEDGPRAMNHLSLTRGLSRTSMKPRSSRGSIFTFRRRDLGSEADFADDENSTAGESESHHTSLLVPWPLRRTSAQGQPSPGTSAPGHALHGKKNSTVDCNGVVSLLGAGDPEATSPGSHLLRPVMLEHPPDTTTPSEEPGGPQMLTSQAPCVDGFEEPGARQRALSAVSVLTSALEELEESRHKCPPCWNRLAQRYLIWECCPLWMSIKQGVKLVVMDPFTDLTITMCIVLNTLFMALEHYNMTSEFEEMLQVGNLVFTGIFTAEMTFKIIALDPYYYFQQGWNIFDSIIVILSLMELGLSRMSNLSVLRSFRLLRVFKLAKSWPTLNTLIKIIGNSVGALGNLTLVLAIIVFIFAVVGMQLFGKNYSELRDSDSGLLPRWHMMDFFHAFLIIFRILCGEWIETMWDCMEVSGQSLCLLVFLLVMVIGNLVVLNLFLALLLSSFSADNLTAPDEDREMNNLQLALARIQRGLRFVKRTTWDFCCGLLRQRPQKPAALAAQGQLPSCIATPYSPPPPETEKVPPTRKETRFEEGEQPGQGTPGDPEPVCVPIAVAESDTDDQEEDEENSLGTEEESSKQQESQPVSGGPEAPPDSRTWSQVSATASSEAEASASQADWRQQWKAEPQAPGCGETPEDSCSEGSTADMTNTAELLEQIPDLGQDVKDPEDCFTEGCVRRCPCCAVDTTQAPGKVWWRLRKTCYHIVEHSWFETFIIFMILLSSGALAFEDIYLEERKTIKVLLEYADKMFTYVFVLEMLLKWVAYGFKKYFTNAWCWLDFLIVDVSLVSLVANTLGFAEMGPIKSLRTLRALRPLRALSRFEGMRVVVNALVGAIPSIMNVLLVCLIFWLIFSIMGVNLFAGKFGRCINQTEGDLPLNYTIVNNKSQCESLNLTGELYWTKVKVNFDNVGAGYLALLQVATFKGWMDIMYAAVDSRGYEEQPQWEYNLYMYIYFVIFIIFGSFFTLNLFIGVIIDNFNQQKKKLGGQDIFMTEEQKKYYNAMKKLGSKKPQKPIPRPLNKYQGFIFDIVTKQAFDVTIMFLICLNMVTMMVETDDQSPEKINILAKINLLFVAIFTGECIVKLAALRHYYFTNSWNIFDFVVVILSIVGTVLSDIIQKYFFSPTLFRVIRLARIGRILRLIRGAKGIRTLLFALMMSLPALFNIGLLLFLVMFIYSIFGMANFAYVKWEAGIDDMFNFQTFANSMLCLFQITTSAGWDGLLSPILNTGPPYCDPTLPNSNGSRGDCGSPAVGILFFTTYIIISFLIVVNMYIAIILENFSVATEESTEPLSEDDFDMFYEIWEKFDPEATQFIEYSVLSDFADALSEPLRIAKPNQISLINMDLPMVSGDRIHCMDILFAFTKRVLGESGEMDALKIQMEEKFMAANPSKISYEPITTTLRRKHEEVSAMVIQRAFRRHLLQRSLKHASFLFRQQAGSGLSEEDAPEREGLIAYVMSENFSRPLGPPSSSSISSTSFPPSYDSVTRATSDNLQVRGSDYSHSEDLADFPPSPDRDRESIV

In test [1], `OCC1(COc2noc3ccc(-c4ccc(OC(F)(F)F)cc4)cc23)COC1` [Example 97, (3-(((5-(4-(trifluoromethoxy)phenyl)benzo[d]isoxazol-3-yl)oxy)methyl)oxetan-3-yl)methanol] had an inhibition at 1 µM of 39%. In addition, the inhibition at 3 µM in test [2] (setting [3]) was 26.5%; in test [2] (setting [4]), less than 5%.

As to `CC(C)n1ccnc1COc1noc2ccc(-c3ccc(OC(F)(F)F)cc3)cc12` [Example 48, 3-((1-isopropyl-1H-imidazol-2-yl)methoxy)-5-(4-(trifluoromethoxy)phenyl)benzo[d]isoxazole], in test [1], the inhibition at 1 µM amounted to 51.2%. Also, the values for the inhibition at 3 µM in test [2] (setting [3]) and in test [2] (setting [4]) were 9.1% and 5.7%, respectively.

As to `Cc1cccnc1COc1noc2ccc(-c3ccc(OC(F)(F)F)cc3)cc12` [Example 93, 3-((3-methylpyridin-2-yl)methoxy)-5-(4-(trifluoromethoxy)phenyl)benzo[d]isoxazole], in test [1], the inhibition at 1 µM is 45.1%. For the same compound, the inhibition at 3 µM in test [2] (setting [3]) is 14.9%; in test [2] (setting [4]), less than 5%.

In the case of `Cc1cc(-c2cc3c(OCc4ncccn4)noc3cc2C)ccc1OC(F)(F)F` [Example 27, 6-methyl-5-(3-methyl-4-(trifluoromethoxy)phenyl)-3-(pyrimidin-2-ylmethoxy)benzo[d]isoxazole], the inhibition at 1 µM in test [1] stood at 35.1%. In addition, the inhibition at 3 µM is 20.8% in test [2] (setting [3]) and less than 5% in test [2] (setting [4]).

The compound `Cc1cc(-c2ccc(OC(F)(F)F)cc2)cc2c(OCc3ncco3)noc12` [Example 91, 7-methyl-3-(oxazol-2-ylmethoxy)-5-(4-(trifluoromethoxy)phenyl)benzo[d]isoxazole] had an inhibition at 1 µM in test [1] of 53%. Moreover, the inhibition at 3 µM is 33% in test [2] (setting [3]) and less than 5% in test [2] (setting [4]).

In the case of `Cc1cc(-c2cc(C)c3onc(OCc4ncccn4)c3c2)ccc1OC(F)(F)F` [Example 18, 7-methyl-5-(3-methyl-4-(trifluoromethoxy)phenyl)-3-(pyrimidin-2-ylmethoxy)benzo[d]isoxazole], the inhibition at 1 µM in test [1] was 38.2%. The inhibition at 3 µM worked out at 27.7% in test [2] (setting [3]) and 5.2% in test [2] (setting [4]).

In turn, `COc1cc(-c2ccc(OC(F)(F)F)c(C)c2)cc2c(OCc3ncccn3)noc12` [Example 23, 7-methoxy-5-(3-methyl-4-(trifluoromethoxy)phenyl)-3-(pyrimidin-2-ylmethoxy)benzo[d]isoxazole] yielded an inhibition at 1 µM in test [1] of 45.3%. In addition, the inhibition at 3 µM in test [2] (setting [4]) is less than 5%.

In turn, `O=C1CC[C@H](COc2noc3ccc(-c4ccc(OC(F)(F)F)cc4)cc23)N1` [Example 61, (R)-5-(((5-(4-(trifluoromethoxy)phenyl)benzo[d]isoxazol-3-yl)oxy)methyl)pyrrolidin-2-one] displayed an inhibition at 1 µM in test [1] of 38.2%. Also, the inhibition at 3 µM was determined as 11.8% in test [2] (setting [3]) and 6.6% in test [2] (setting [4]).

`CC1(COc2noc3ccc(-c4ccc(OC(F)(F)F)cc4)cc23)COC1` [Example 92, 3-((3-methyloxetan-3-yl)methoxy)-5-(4-(trifluoromethoxy)phenyl)benzo[d]isoxazole] came in with an inhibition at 1 µM in test [1] of 36.3%. Also, the figures for the inhibition at 3 µM in test [2] (setting [3]) and in test [2] (setting [4]) were 9.6% and less than 5%, respectively.

Turning to `Cc1cc(OC(F)(F)F)ccc1-c1cc2c(OCc3ncccn3)noc2cc1C` [Example 29, 6-methyl-5-(2-methyl-4-(trifluoromethoxy)phenyl)-3-(pyrimidin-2-ylmethoxy)benzo[d]isoxazole], the inhibition at 1 µM in test [1] came out at 46.4%. Besides, the inhibition at 3 µM is 8.1% in test [2] (setting [3]) and less than 5% in test [2] (setting [4]).

In test [1], `CC(COc1noc2ccc(-c3ccc(OC(F)(F)F)cc3)cc12)n1cncn1` (stereo not shown) [Example 77, 3-(2-(1H-1,2,4-triazol-1-yl)propoxy)-5-(4-(trifluoromethoxy)phenyl)benzo[d]isoxazole] showed an inhibition at 1 µM of 49.2%. Moreover, the inhibition at 3 µM was 34.6% in test [2] (setting [3]) and 8.3% in test [2] (setting [4]).

Compound `Cc1cccc(COc2noc3ccc(-c4ccc(OC(F)(F)F)cc4)cc23)n1` [Example 95, 3-((6-methylpyridin-2-yl)methoxy)-5-(4-(trifluoromethoxy)phenyl)benzo[d]isoxazole] showed an inhibition at 1 µM in test [1] of 51.7%. The inhibition at 3 µM in test [2] (setting [3]) is 6.4%; in test [2] (setting [4]) it was less than 5%.

In turn, `Fc1cc(-c2ccc(OC(F)(F)F)cc2)cc2c(OCc3ncccn3)noc12` [Example 17, 7-fluoro-3-(pyrimidin-2-ylmethoxy)-5-(4-(trifluoromethoxy)phenyl)benzo[d]isoxazole] came in with an inhibition at 1 µM in test [1] of 45.9%. The inhibition at 3 µM was 28.9% in test [2] (setting [3]) and less than 5% in test [2] (setting [4]).

In turn, `Fc1cc2onc(OCc3ncccn3)c2cc1-c1ccc2c(c1)OC(F)(F)O2` [Example 35, 5-(2,2-difluorobenzo[d][1,3]dioxol-5-yl)-6-fluoro-3-(pyrimidin-2-ylmethoxy)benzo[d]isoxazole] yielded an inhibition at 1 µM in test [1] of 33.6%. Besides, the inhibition at 3 µM in test [2] (setting [3]) is 17.4%; in test [2] (setting [4]), less than 5%.

Consider `Cn1cncc1COc1noc2ccc(-c3ccc(OC(F)(F)F)cc3)cc12` [Example 50, 3-((1-methyl-1H-imidazol-5-yl)methoxy)-5-(4-(trifluoromethoxy)phenyl)benzo[d]isoxazole], for which, in test [1], the inhibition at 1 µM came to 32.5%. Besides, in test [2] (setting [4]), the inhibition at 3 µM was less than 5%.

Take `Cc1cc(-c2ccc(OC(F)(F)F)cc2)cc2c(OCCn3cncn3)noc12` [Example 89, 3-(2-(1H-1,2,4-triazol-1-yl)ethoxy)-7-methyl-5-(4-(trifluoromethoxy)phenyl)benzo[d]isoxazole]: the inhibition at 1 µM in test [1] was 33.2%. The inhibition at 3 µM in test [2] (setting [3]) was 5.7%; in test [2] (setting [4]) it was less than 5%.

Regarding `COc1ccnc(COc2noc3ccc(-c4ccc(OC(F)(F)F)cc4)cc23)c1` [Example 81, 3-((4-methoxypyridin-2-yl)methoxy)-5-(4-(trifluoromethoxy)phenyl)benzo[d]isoxazole], the inhibition at 1 µM in test [1] was 33.7%. In addition, the inhibition at 3 µM in test [2] (setting [3]) was 23.5%; in test [2] (setting [4]) it was less than 5%.

As for `Fc1cc2onc(OCc3ncccn3)c2cc1-c1ccc(OC(F)(F)F)cc1` [Example 31, 6-fluoro-3-(pyrimidin-2-ylmethoxy)-5-(4-(trifluoromethoxy)phenyl)benzo[d]isoxazole], in test [1], the inhibition at 1 µM is 43.9%. For the same compound, the inhibition at 3 µM was 18.5% in test [2] (setting [3]) and less than 5% in test [2] (setting [4]).

For the compound `Cc1nc(C)n(CCOc2noc3ccc(-c4ccc(OC(F)(F)F)cc4)cc23)n1` [Example 76, 3-(2-(3,5-dimethyl-1H-1,2,4-triazol-1-yl)ethoxy)-5-(4-(trifluoromethoxy)phenyl)benzo[d]isoxazole], the inhibition at 1 µM in test [1] was found to be 55.2%. The inhibition at 3 µM is 49.9% in test [2] (setting [3]) and less than 5% in test [2] (setting [4]).

Regarding `COc1cc(-c2ccc(OC(F)(F)F)cc2C)cc2c(OCc3ncccn3)noc12` [Example 25, 7-methoxy-5-(2-methyl-4-(trifluoromethoxy)phenyl)-3-(pyrimidin-2-ylmethoxy)benzo[d]isoxazole], the inhibition at 1 µM in test [1] was 41.3%. Also, the inhibition at 3 µM in test [2] (setting [3]) was 12%; in test [2] (setting [4]) it was less than 5%.

Take `Cc1nc(C)n(C(C)COc2noc3ccc(-c4ccc(OC(F)(F)F)cc4)cc23)n1` (stereo not shown) [Example 79, 3-(2-(3,5-dimethyl-1H-1,2,4-triazol-1-yl)propoxy)-5-(4-(trifluoromethoxy)phenyl)benzo[d]isoxazole]: the inhibition at 1 µM in test [1] turned out to be 46.1%. For the same compound, the inhibition at 3 µM is 26% in test [2] (setting [3]) and less than 5% in test [2] (setting [4]).

Consider `FC(F)(F)Oc1ccc(-c2ccc3onc(OCc4cn[nH]c4)c3c2)cc1` [Example 45, 3-((1H-pyrazol-4-yl)methoxy)-5-(4-(trifluoromethoxy)phenyl)benzo[d]isoxazole], for which the inhibition at 1 µM in test [1] came to 43.6%. Further, the inhibition at 3 µM in test [2] (setting [3]) turned out to be 16.8%; in test [2] (setting [4]), 15.1%.

On to `CCn1cncc1COc1noc2ccc(-c3ccc(OC(F)(F)F)cc3)cc12` [Example 49, 3-((1-ethyl-1H-imidazol-5-yl)methoxy)-5-(4-(trifluoromethoxy)phenyl)benzo[d]isoxazole], for which the inhibition at 1 µM in test [1] was found to be 39.6%. Moreover, the inhibition at 3 µM in test [2] (setting [3]) is 16.9%; in test [2] (setting [4]), less than 5%.

In test [1], `Cn1cc(COc2noc3ccc(-c4ccc(OC(F)(F)F)cc4)cc23)nn1` [Example 44] returned an inhibition at 1 µM of 48.2%. Further, the inhibition at 3 µM turned out to be 29.9% in test [2] (setting [3]) and 10.4% in test [2] (setting [4]).

Compound `Cc1cc2onc(OCc3ncccn3)c2cc1-c1ccc(OC(F)(F)F)cc1` [Example 26, 6-methyl-3-(pyrimidin-2-ylmethoxy)-5-(4-(trifluoromethoxy)phenyl)benzo[d]isoxazole] displayed an inhibition at 1 µM in test [1] of 49.6%. Also, the inhibition at 3 µM is 27.8% in test [2] (setting [3]) and less than 5% in test [2] (setting [4]).

Regarding `COc1cc(-c2ccc(C(F)(F)F)cc2F)cc2c(OCc3ncccn3)noc12` [Example 24, 5-(2-fluoro-4-(trifluoromethyl)phenyl)-7-methoxy-3-(pyrimidin-2-ylmethoxy)benzo[d]isoxazole], the inhibition at 1 µM in test [1] is 36%. The inhibition at 3 µM is 10% in test [2] (setting [3]) and less than 5% in test [2] (setting [4]).

As to `CC(Oc1noc2ccc(-c3ccc(OC(F)(F)F)cc3)cc12)c1ccccn1` (stereo not shown) [Example 98, 3-(1-(pyridin-2-yl)ethoxy)-5-(4-(trifluoromethoxy)phenyl)benzo[d]isoxazole], the inhibition at 1 µM in test [1] came to 38.7%. Further, the inhibition at 3 µM in test [2] (setting [3]) is 28.7%; in test [2] (setting [4]), less than 5%.

Source of the values: patent publication US9416115B2, “Fused heterocyclic compounds as ion channel modulators” (Gilead Sciences, Inc., priority 2013, dated 2016).
